Results on ten compounds are retold here after ChEMBL document CHEMBL5143638, “Natural aloe emodin-hybridized sulfonamide aminophosphates as novel potential membrane-perturbing and DNA-intercalating agents against Enterococcus faecalis” (Bioorg Med Chem Lett, 2022).

Converted amounts (≈) assume the structure as drawn.

In general, MIC refers to the lowest concentration that inhibits growth of the organism.

What all share (format): functional
Test [1] concerns Staphylococcus aureus. In words: Antibacterial activity against Staphylococcus aureus ATCC 25923 assessed as inhibition of bacterial growth measured after 24 hrs by CLSI based broth microdilution method.
In test [2] the test system is Escherichia coli. In words: Antibacterial activity against Escherichia coli ATCC 25922 assessed as inhibition of bacterial growth measured after 24 hrs by CLSI based broth microdilution method. A general note: In broth dilution the organism is exposed to a series of concentrations in liquid medium.
In test [3] the test system is Enterococcus faecalis. Nature of the test: Antibacterial activity against Enterococcus faecalis assessed as inhibition of bacterial growth measured after 24 hrs by CLSI based broth microdilution method.
For test [4], the system named is Acinetobacter baumannii. Nature of the test: Antibacterial activity against Acinetobacter baumannii assessed as inhibition of bacterial growth measured after 24 hrs by CLSI based broth microdilution method.
For test [5], the system named is Pseudomonas aeruginosa. Nature of the test: Antibacterial activity against Pseudomonas aeruginosa ATCC 27853 assessed as inhibition of bacterial growth measured after 24 hrs by CLSI based broth microdilution method.
Test [6] relates to Klebsiella pneumoniae. In words: Antibacterial activity against Klebsiella pneumoniae assessed as inhibition of bacterial growth measured after 24 hrs by CLSI based broth microdilution method.
Test [7] relates to Staphylococcus aureus. In words: Antibacterial activity against methicillin-resistant Staphylococcus aureus N315 assessed as inhibition of bacterial growth measured after 24 hrs by CLSI based broth microdilution method.
Test [8] concerns Escherichia coli. Nature of the test: Antibacterial activity against Escherichia coli assessed as inhibition of bacterial growth measured after 24 hrs by CLSI based broth microdilution method.
Test [9] concerns Pseudomonas aeruginosa. In words: Antibacterial activity against Pseudomonas aeruginosa assessed as inhibition of bacterial growth measured after 24 hrs by CLSI based broth microdilution method.
Test [10] concerns Staphylococcus aureus. Nature of the test: Antibacterial activity against Staphylococcus aureus assessed as inhibition of bacterial growth measured after 24 hrs by CLSI based broth microdilution method.

Regarding `CCCCOP(=O)(OCCCC)C(Nc1ccc(S(=O)(=O)Nc2cc(C)on2)cc1)c1cc(O)c2c(c1)C(=O)c1cccc(O)c1C2=O` (stereo not given), the MIC in test [1] stood at 128 µg/mL (≈ 183 µM); in test [2], 64 µg/mL (≈ 91.7 µM); in test [3] it was 256 µg/mL (≈ 367 µM); in test [4], 64 µg/mL (≈ 91.7 µM); in test [5] it was 64 µg/mL (≈ 91.7 µM); in [6], 256 µg/mL (≈ 367 µM). In addition, the minimal inhibitory concentration (MIC) in test [7] worked out at 16 µg/mL (≈ 22.9 µM); in [8] it was 128 µg/mL (≈ 183 µM); in test [9], 64 µg/mL (≈ 91.7 µM); in [10] it was 128 µg/mL (≈ 183 µM).

`O=C1c2cccc(O)c2C(=O)c2c(O)cc(C(Nc3ccc(S(=O)(=O)Nc4ncccn4)cc3)P(=O)(Oc3ccccc3)Oc3ccccc3)cc21` (stereo not given): the minimum inhibitory concentration (MIC) in test [1] was 256 µg/mL (≈ 348 µM); in test [2], 32 µg/mL (≈ 43.6 µM); in [3], 64 µg/mL (≈ 87.1 µM); in test [4] it was 64 µg/mL (≈ 87.1 µM); in [5], 64 µg/mL (≈ 87.1 µM); in test [6], 128 µg/mL (≈ 174 µM). Further, the MIC in test [7] was determined as 64 µg/mL (≈ 87.1 µM); in test [8] it was 64 µg/mL (≈ 87.1 µM); in test [9], 128 µg/mL (≈ 174 µM); in [10] it was 32 µg/mL (≈ 43.6 µM).

`O=C1c2cccc(O)c2C(=O)c2c(O)cc(C(Nc3ccc(S(=O)(=O)Nc4nccs4)cc3)P(=O)(Oc3ccccc3)Oc3ccccc3)cc21` (stereo not given): the minimal inhibitory concentration (MIC) is 256 µg/mL (≈ 346 µM) in [1]; 64 µg/mL (≈ 86.5 µM) in test [2]; 64 µg/mL (≈ 86.5 µM) in test [3]; 64 µg/mL (≈ 86.5 µM) in test [4]; 128 µg/mL (≈ 173 µM) in test [5]; 128 µg/mL (≈ 173 µM) in [6]. Also, the MIC in test [7] was found to be 64 µg/mL (≈ 86.5 µM); in test [8], 128 µg/mL (≈ 173 µM); in test [9], 32 µg/mL (≈ 43.3 µM); in test [10] it was 64 µg/mL (≈ 86.5 µM).

As for `COP(=O)(OC)C(Nc1ccc(S(N)(=O)=O)cc1)c1cc(O)c2c(c1)C(=O)c1cccc(O)c1C2=O` (stereo not given), the MIC is 128 µg/mL (≈ 240 µM) in test [1]; 8 µg/mL (≈ 15 µM) in test [2]; 0.25 µg/mL (≈ 0.47 µM) in test [3]; 0.5 µg/mL (≈ 0.939 µM) in [4]; 32 µg/mL (≈ 60.1 µM) in [5]; 128 µg/mL (≈ 240 µM) in [6]. The minimal inhibitory concentration (MIC) in [7] was found to be 16 µg/mL (≈ 30 µM); in test [8], 2 µg/mL (≈ 3.76 µM); in [9], 64 µg/mL (≈ 120 µM); in test [10], 32 µg/mL (≈ 60.1 µM).

Turning to `CCCCOP(=O)(OCCCC)C(Nc1ccc(S(=O)(=O)Nc2nccs2)cc1)c1cc(O)c2c(c1)C(=O)c1cccc(O)c1C2=O` (stereo not given), the MIC in test [1], in [2], in test [3], in test [4], in test [5] and in [6] was 256 µg/mL (≈ 366 µM) in each case. Moreover, the MIC in test [7], in [8], in test [9] and in [10] was 256 µg/mL (≈ 366 µM) each time.

On to `Nc1ccc(S(=O)(=O)Nc2nccs2)cc1` [SULFATHIAZOLE], for which the minimum inhibitory concentration (MIC) was 64 µg/mL (≈ 251 µM) in [1]; 64 µg/mL (≈ 251 µM) in [2]; 64 µg/mL (≈ 251 µM) in test [3]; 32 µg/mL (≈ 125 µM) in test [4]; 64 µg/mL (≈ 251 µM) in test [5]; 256 µg/mL (≈ 1000 µM) in test [6]. The MIC in test [7] came to 128 µg/mL (≈ 501 µM); in [8], 64 µg/mL (≈ 251 µM); in [9] it was 64 µg/mL (≈ 251 µM); in test [10], 128 µg/mL (≈ 501 µM).

Turning to `Cc1cc(NS(=O)(=O)c2ccc(NC(c3cc(O)c4c(c3)C(=O)c3cccc(O)c3C4=O)P(=O)(Oc3ccccc3)Oc3ccccc3)cc2)no1` (stereo not given), the MIC in [1] came to 256 µg/mL (≈ 347 µM); in test [2], 32 µg/mL (≈ 43.4 µM); in test [3], 64 µg/mL (≈ 86.8 µM); in [4], 64 µg/mL (≈ 86.8 µM); in test [5], 256 µg/mL (≈ 347 µM); in [6], 128 µg/mL (≈ 174 µM). The MIC in test [7], in test [8], in test [9] and in test [10] was 64 µg/mL (≈ 86.8 µM) throughout.

In the case of `Cc1noc(NS(=O)(=O)c2ccc(NC(c3cc(O)c4c(c3)C(=O)c3cccc(O)c3C4=O)P(=O)(OC(C)C)OC(C)C)cc2)c1C` (stereo not given), the minimal inhibitory concentration (MIC) is 2 µg/mL (≈ 2.93 µM) in test [1]; 0.5 µg/mL (≈ 0.731 µM) in test [2]; 64 µg/mL (≈ 93.6 µM) in test [3]; 2 µg/mL (≈ 2.93 µM) in test [4]; 256 µg/mL (≈ 374 µM) in test [5]; 2 µg/mL (≈ 2.93 µM) in [6]. In addition, the MIC in test [7] was found to be 0.25 µg/mL (≈ 0.366 µM); in test [8], 64 µg/mL (≈ 93.6 µM); in test [9], 2 µg/mL (≈ 2.93 µM); in test [10], 2 µg/mL (≈ 2.93 µM).

As for `NS(=O)(=O)c1ccc(NC(c2cc(O)c3c(c2)C(=O)c2cccc(O)c2C3=O)P(=O)(Oc2ccccc2)Oc2ccccc2)cc1` (stereo not given), the MIC in test [1] was 256 µg/mL (≈ 390 µM); in test [2], 32 µg/mL (≈ 48.7 µM); in test [3] it was 32 µg/mL (≈ 48.7 µM); in test [4] it was 16 µg/mL (≈ 24.4 µM); in test [5] it was 32 µg/mL (≈ 48.7 µM); in test [6], 128 µg/mL (≈ 195 µM). Further, the minimum inhibitory concentration (MIC) in [7] worked out at 16 µg/mL (≈ 24.4 µM); in test [8] it was 64 µg/mL (≈ 97.5 µM); in test [9] it was 128 µg/mL (≈ 195 µM); in test [10], 64 µg/mL (≈ 97.5 µM).

With `CCOP(=O)(OCC)C(Nc1ccc(S(=O)(=O)Nc2nccs2)cc1)c1cc(O)c2c(c1)C(=O)c1cccc(O)c1C2=O` (stereo not given), the MIC in test [1] was found to be 256 µg/mL (≈ 398 µM); in test [2], 256 µg/mL (≈ 398 µM); in [3] it was 0.5 µg/mL (≈ 0.777 µM); in test [4] it was 64 µg/mL (≈ 99.4 µM); in test [5] it was 128 µg/mL (≈ 199 µM); in [6] it was 256 µg/mL (≈ 398 µM). Further, the MIC in test [7] stood at 256 µg/mL (≈ 398 µM); in test [8], 256 µg/mL (≈ 398 µM); in test [9], 256 µg/mL (≈ 398 µM); in test [10], 16 µg/mL (≈ 24.9 µM).
